These are literature values, as cited in patent US20040096492A1, “Cicatrizant hydrocolloidal patch containing hyaluronic acid and chondroitin sulphate” (priority 2001, published 2004).

The test system of the series is full thickness (300 mm^2) cutaneous wound. As to conditions: rats.

For sodium chondroitin sulphate, under “8 days after the second application of 30 mg”, the “residual area in the treated group relative to the control group” value was “half”. Further, the “reduction of the damaged surface (planimetry)” value (one or two applications of 30 mg, vs control) is recorded as “more rapid”. Besides, for the setting “vs control”, the “clinical signs connected with the lesion (edema-exudate)” value is recorded as “decreased more quickly”.
